Test system: 926638-142-R-J1-PDC complex spheroid viability
Test: Anticancer human tumor 926638-142-R-J1-PDC patient-derived endometrial carcinoma cell line growth inhibition [POLQ]
Conditions: for IC50: curve of first compound; for viability, T/C: stronger effect = lower value
Method in brief: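 Growth inhibition in 3D: complex spheroids (tumor PDC, HUVEC, MSC) treated with POLQ inhibitor combinations; where Cmax unknown, highest tested concentration 10 microM, except SN-38 at 1 microM.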

[1] = second compound 0.0316 µM, first compound 0.0316 µM
[2] = second compound 0.0316 µM, first compound 0.1 µM
[3] = second compound 0.0316 µM, first compound 0.316 µM
[4] = second compound 0.0316 µM, first compound 1 µM
[5] = second compound 0.0316 µM, first compound 3.16 µM
[6] = second compound 0.0316 µM, first compound 10 µM
[7] = second compound 0.1 µM, first compound 0.0316 µM
[8] = second compound 0.1 µM, first compound 0.1 µM
[9] = second compound 0.1 µM, first compound 0.316 µM
[10] = second compound 0.1 µM, first compound 1 µM
[11] = second compound 0.1 µM, first compound 3.16 µM
[12] = second compound 0.1 µM, first compound 10 µM
[13] = second compound 0.316 µM, first compound 0.0316 µM
[14] = second compound 0.316 µM, first compound 0.1 µM
[15] = second compound 0.316 µM, first compound 0.316 µM
[16] = second compound 0.316 µM, first compound 1 µM
[17] = second compound 0.316 µM, first compound 3.16 µM
[18] = second compound 0.316 µM, first compound 10 µM
[19] = second compound 1 µM, first compound 0.0316 µM
[20] = second compound 1 µM, first compound 0.1 µM
[21] = second compound 1 µM, first compound 0.316 µM
[22] = second compound 1 µM, first compound 1 µM
[23] = second compound 1 µM, first compound 3.16 µM
[24] = second compound 1 µM, first compound 10 µM
[25] = second compound 3.16 µM, first compound 0.0316 µM
[26] = second compound 3.16 µM, first compound 0.1 µM
[27] = second compound 3.16 µM, first compound 0.316 µM
[28] = second compound 3.16 µM, first compound 1 µM
[29] = second compound 3.16 µM, first compound 3.16 µM
[30] = second compound 3.16 µM, first compound 10 µM
[31] = second compound 10 µM, first compound 0.0316 µM
[32] = second compound 10 µM, first compound 0.1 µM
[33] = second compound 10 µM, first compound 0.316 µM
[34] = second compound 10 µM, first compound 1 µM
[35] = second compound 10 µM, first compound 3.16 µM
[36] = second compound 10 µM, first compound 10 µM
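Also: spheroids exposed to drugs for one week before readout.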
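For viability, T/C in this document: percent viability relative to DMSO vehicle control wells set as 100%.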

Compound: CNCc1ccc(-c2[nH]c3cc(F)cc4c3c2CCNC4=O)cc1 + Nc1ccc(C#CCN(C(=O)Cc2ncc(C(F)(F)F)cc2C(F)(F)F)c2ccc(F)cc2)nn1
- IC50 (second compound 0.0316 µM): > 10000 nM
- IC50 (second compound 0.1 µM): > 10000 nM
- IC50 (second compound 0.316 µM): > 10000 nM
- IC50 (second compound 1 µM): > 10000 nM
- IC50 (second compound 3.16 µM): > 10000 nM
- IC50 (second compound 10 µM): > 10000 nM
- viability, T/C [1]: 94.5%
- viability, T/C [2]: 87.2%
- viability, T/C [3]: 91.2%
- viability, T/C [4]: 83.1%
- viability, T/C [5]: 86.2%
- viability, T/C [6]: 71.3%
- viability, T/C [7]: 96.7%
- viability, T/C [8]: 115%
- viability, T/C [9]: 90.7%
- viability, T/C [10]: 87.8%
- viability, T/C [11]: 101%
- viability, T/C [12]: 71.3%
- viability, T/C [13]: 101%
- viability, T/C [14]: 108%
- viability, T/C [15]: 95%
- viability, T/C [16]: 82.6%
- viability, T/C [17]: 115%
- viability, T/C [18]: 73.7%
- viability, T/C [19]: 103%
- viability, T/C [20]: 90.2%
- viability, T/C [21]: 91.2%
- viability, T/C [22]: 79.5%
- viability, T/C [23]: 95.3%
- viability, T/C [24]: 84.1%
- viability, T/C [25]: 102%
- viability, T/C [26]: 89.5%
- viability, T/C [27]: 101%
- viability, T/C [28]: 80.1%
- viability, T/C [29]: 93%
- viability, T/C [30]: 71.1%
- viability, T/C [31]: 90%
- viability, T/C [32]: 81.4%
- viability, T/C [33]: 93%
- viability, T/C [34]: 95.1%
- viability, T/C [35]: 98.7%
- viability, T/C [36]: 73.1%

Compound: COc1ccc([C@@H](O)c2cc(-c3ncnc4cc(N5CCOCC5)ccc34)c(F)cc2Cl)nn1 + Nc1ccc(C#CCN(C(=O)Cc2ncc(C(F)(F)F)cc2C(F)(F)F)c2ccc(F)cc2)nn1
- IC50 (second compound 0.0316 µM): 631 nM
- IC50 (second compound 0.1 µM): 450 nM
- IC50 (second compound 0.316 µM): 572 nM
- IC50 (second compound 1 µM): 708 nM
- IC50 (second compound 3.16 µM): 628 nM
- IC50 (second compound 10 µM): 537 nM
- viability, T/C [1]: 90.7%
- viability, T/C [2]: 82%
- viability, T/C [3]: 58.1%
- viability, T/C [4]: 47.2%
- viability, T/C [5]: 20.1%
- viability, T/C [6]: 14.7%
- viability, T/C [7]: 101%
- viability, T/C [8]: 83.3%
- viability, T/C [9]: 56.6%
- viability, T/C [10]: 34%
- viability, T/C [11]: 19.4%
- viability, T/C [12]: 12.7%
- viability, T/C [13]: 119%
- viability, T/C [14]: 101%
- viability, T/C [15]: 67.1%
- viability, T/C [16]: 33.9%
- viability, T/C [17]: 19.8%
- viability, T/C [18]: 15%
- viability, T/C [19]: 103%
- viability, T/C [20]: 88.9%
- viability, T/C [21]: 71.9%
- viability, T/C [22]: 41.2%
- viability, T/C [23]: 20%
- viability, T/C [24]: 13.2%
- viability, T/C [25]: 91.6%
- viability, T/C [26]: 75.8%
- viability, T/C [27]: 67%
- viability, T/C [28]: 39.3%
- viability, T/C [29]: 22.9%
- viability, T/C [30]: 12.7%
- viability, T/C [31]: 81.4%
- viability, T/C [32]: 76.2%
- viability, T/C [33]: 65.6%
- viability, T/C [34]: 32%
- viability, T/C [35]: 15%
- viability, T/C [36]: 10.2%

Compound: Cn1ncnc1[C@H]1c2n[nH]c(=O)c3cc(F)cc(c23)N[C@@H]1c1ccc(F)cc1 + Nc1ccc(C#CCN(C(=O)Cc2ncc(C(F)(F)F)cc2C(F)(F)F)c2ccc(F)cc2)nn1
- IC50 (second compound 0.0316 µM): > 100 nM
- IC50 (second compound 0.1 µM): > 100 nM
- IC50 (second compound 0.316 µM): > 100 nM
- IC50 (second compound 1 µM): > 100 nM
- IC50 (second compound 3.16 µM): > 100 nM
- IC50 (second compound 10 µM): > 100 nM
- viability, T/C (second compound 0.0316 µM, first compound 0.000316 µM): 117%
- viability, T/C (second compound 0.0316 µM, first compound 0.001 µM): 89.7%
- viability, T/C (second compound 0.0316 µM, first compound 0.00316 µM): 99.6%
- viability, T/C (second compound 0.0316 µM, first compound 0.01 µM): 75.7%
- viability, T/C [1]: 69.8%
- viability, T/C [2]: 74.5%
- viability, T/C (second compound 0.1 µM, first compound 0.000316 µM): 123%
- viability, T/C (second compound 0.1 µM, first compound 0.001 µM): 90.1%
- viability, T/C (second compound 0.1 µM, first compound 0.00316 µM): 101%
- viability, T/C (second compound 0.1 µM, first compound 0.01 µM): 78%
- viability, T/C [7]: 79.8%
- viability, T/C [8]: 68.5%
- viability, T/C (second compound 0.316 µM, first compound 0.000316 µM): 91.9%
- viability, T/C (second compound 0.316 µM, first compound 0.001 µM): 98.5%
- viability, T/C (second compound 0.316 µM, first compound 0.00316 µM): 83.6%
- viability, T/C (second compound 0.316 µM, first compound 0.01 µM): 84%
- viability, T/C [13]: 84.9%
- viability, T/C [14]: 66.2%
- viability, T/C (second compound 1 µM, first compound 0.000316 µM): 108%
- viability, T/C (second compound 1 µM, first compound 0.001 µM): 96.7%
- viability, T/C (second compound 1 µM, first compound 0.00316 µM): 75.6%
- viability, T/C (second compound 1 µM, first compound 0.01 µM): 83.2%
- viability, T/C [19]: 70.4%
- viability, T/C [20]: 80.5%
- viability, T/C (second compound 3.16 µM, first compound 0.000316 µM): 82.3%
- viability, T/C (second compound 3.16 µM, first compound 0.001 µM): 96.3%
- viability, T/C (second compound 3.16 µM, first compound 0.00316 µM): 92.2%
- viability, T/C (second compound 3.16 µM, first compound 0.01 µM): 92.4%
- viability, T/C [25]: 82.9%
- viability, T/C [26]: 71.2%
- viability, T/C (second compound 10 µM, first compound 0.000316 µM): 94.3%
- viability, T/C (second compound 10 µM, first compound 0.001 µM): 99.2%
- viability, T/C (second compound 10 µM, first compound 0.00316 µM): 78.7%
- viability, T/C (second compound 10 µM, first compound 0.01 µM): 74%
- viability, T/C [31]: 81.9%
- viability, T/C [32]: 75.7%

— PubChem BioAssay AID1963826 (Molecular Pharmacology Branch, DTP, NCI, 2024)
